Laboratory results from PMC2726771 (The Journal of neuroscience : the official journal of the …, 2009).
Values joined by “and” are separate entries in the source; they are usually repeats but may differ in a detail not shown here. Equal values may be shown once. Read-outs that look alike come from different tables or passages of the source.

How the values were obtained:
[1] = biological target: α3T115Cβ2 nAChR (Rattus norvegicus, UniProt P04757+P12390, T142C); format: cell-based; details: for time constant τ of MTSET modification: response to 300 μM ACh + 10 μM Mor; for potentiation (IACh+Mor/IACh), sample traces Fig. 2: 300 μM ACh + 10 μM Mor
[2] = biological target: α3β2T150C nAChR (Rattus norvegicus, UniProt P04757+P12390, T176C); format: cell-based; details: for decrease of Mor potency / reduction of maximum Mor-evoked current (efficacy): after 100 μM reagent; for potentiation (IACh+Mor/IACh), sample traces Fig. 2: 300 μM ACh + 10 μM Mor; for potentiation: 10 μM Mor
[3] = biological target: α3β2T193C nAChR (Rattus norvegicus, UniProt P04757+P12390, T219C); format: cell-based
[4] = biological target: T1, α3β2 wt nAChR (Rattus norvegicus, UniProt P04757+P12390); format: cell-based
[5] = biological target: α3A106Cβ2 nAChR (Rattus norvegicus, UniProt P04757+P12390, A133C); format: cell-based
[6] = biological target: T1, α3β2 wt nAChR; details: ref Wu et al., 2008, cited from earlier work
[7] = system: α3E113R; details: ref Laureijs and Levandoski, unpublished; cited from earlier work
[8] = biological target: α3S161Cβ2 nAChR (Rattus norvegicus, UniProt P04757+P12390, S188C); format: cell-based
[9] = biological target: α3β2S192C nAChR (Rattus norvegicus, UniProt P04757+P12390, S218C); format: cell-based
[10] = biological target: α3β2S148C nAChR (Rattus norvegicus, UniProt P04757+P12390, S174C); format: cell-based
[11] = 100 μM MTSET + 200 μM ACh treatment, ACh + 10 μM Mor
[12] = 100 μM MTSET + 200 μM ACh, four 30-sec
[13] = 100 μM MTSET co-applied with ACh, 2 min
[14] = relative to response to ACh alone at [ACh] ~ EC50
[15] = after 2-min 100 μM MTSET co-applied with ACh
[16] = 100 μM MTSET applied alone, 2 min

Sequence of α3A106Cβ2 nAChR (P04757 26-499 A133C): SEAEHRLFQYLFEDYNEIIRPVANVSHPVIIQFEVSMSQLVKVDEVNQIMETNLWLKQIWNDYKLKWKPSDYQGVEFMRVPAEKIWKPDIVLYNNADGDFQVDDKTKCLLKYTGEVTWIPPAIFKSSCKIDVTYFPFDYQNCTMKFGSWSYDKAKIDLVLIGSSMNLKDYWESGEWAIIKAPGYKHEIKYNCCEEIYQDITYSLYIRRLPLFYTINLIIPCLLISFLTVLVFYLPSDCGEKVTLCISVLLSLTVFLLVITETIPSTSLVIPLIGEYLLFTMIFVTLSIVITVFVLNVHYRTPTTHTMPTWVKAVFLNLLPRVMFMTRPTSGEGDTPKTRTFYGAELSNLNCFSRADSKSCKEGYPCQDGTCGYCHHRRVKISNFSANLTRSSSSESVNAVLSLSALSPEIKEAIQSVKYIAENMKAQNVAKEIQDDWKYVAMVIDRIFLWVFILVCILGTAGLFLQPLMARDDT
Sequence of α3A106Cβ2 nAChR (P12390 25-500): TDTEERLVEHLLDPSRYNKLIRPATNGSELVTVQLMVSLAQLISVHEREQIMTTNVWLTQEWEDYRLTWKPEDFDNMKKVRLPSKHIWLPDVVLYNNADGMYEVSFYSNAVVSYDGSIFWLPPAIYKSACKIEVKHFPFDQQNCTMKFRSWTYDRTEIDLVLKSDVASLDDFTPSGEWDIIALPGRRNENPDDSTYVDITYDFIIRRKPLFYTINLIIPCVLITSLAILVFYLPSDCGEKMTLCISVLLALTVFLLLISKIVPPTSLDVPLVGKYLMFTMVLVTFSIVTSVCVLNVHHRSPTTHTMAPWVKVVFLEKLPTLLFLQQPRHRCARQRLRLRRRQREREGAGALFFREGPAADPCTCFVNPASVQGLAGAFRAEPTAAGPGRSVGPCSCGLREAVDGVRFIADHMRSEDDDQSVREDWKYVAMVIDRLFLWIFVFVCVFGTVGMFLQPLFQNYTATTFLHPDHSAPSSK
Sequence of α3T115Cβ2 nAChR (P04757 26-499 T142C): as the sequence (P04757 26-499 A133C) above, with C108A, T117C counted along it
Sequence of α3T115Cβ2 nAChR (P12390 25-500): as the sequence (P12390 25-500) above
Sequence of α3β2S192C nAChR (P04757 26-499): as the sequence (P04757 26-499 A133C) above, with C108A counted along it
Sequence of α3β2S192C nAChR (P12390 25-500 S218C): as the sequence (P12390 25-500) above, with S194C counted along it
Sequence of α3β2S148C nAChR (P04757 26-499): as the sequence (P04757 26-499 A133C) above, with C108A counted along it
Sequence of α3β2S148C nAChR (P12390 25-500 S174C): as the sequence (P12390 25-500) above, with S150C counted along it
Sequence of α3β2T193C nAChR (P04757 26-499): as the sequence (P04757 26-499 A133C) above, with C108A counted along it
Sequence of α3β2T193C nAChR (P12390 25-500 T219C): as the sequence (P12390 25-500) above, with T195C counted along it
T1 sequence (P04757 26-499): as the sequence (P04757 26-499 A133C) above, with C108A counted along it
T1 sequence (P12390 25-500): as the sequence (P12390 25-500) above
Sequence of α3β2T150C nAChR (P04757 26-499): as the sequence (P04757 26-499 A133C) above, with C108A counted along it
Sequence of α3β2T150C nAChR (P12390 25-500 T176C): as the sequence (P12390 25-500) above, with T152C counted along it
Sequence of α3S161Cβ2 nAChR (P04757 26-499 S188C): as the sequence (P04757 26-499 A133C) above, with C108A, S163C counted along it
Sequence of α3S161Cβ2 nAChR (P12390 25-500, stated change not applied): as the sequence (P12390 25-500) above

CS(=O)(=O)SCc1ccccc1 [MTSBn, benzylmethanethiosulfonate]
potentiation post/pre ([1]; after 100 μM MTS reagent alone): 0.99 ± 0.10
reduction of ACh-evoked currents ([1]; after 100 μM MTS reagent alone): 29 ± 9%
reduction of ACh/Mor-evoked currents ([1]; after 100 μM MTS reagent alone): 30 ± 10%
decrease of Mor potency ([2]; four 30-sec doses): 4 fold
reduction of maximum Mor-evoked current (efficacy) ([2]; four 30-sec doses): 45%

C[N+](C)(C)CCSS(C)(=O)=O.[Br-] [MTSET, [2-(trimethyl-ammonium)ethyl]methanesthiosulfonate bromide]
time constant τ of MTSET modification ([1]; 30 μM MTSET alone): 170 s and 167 ± 22 s
time constant τ of MTSET modification ([1]; 30 μM MTSET co-applied with 100 μM Mor): 720 s and 719 ± 137 s
time constant τ of MTSET modification ([1]; 30 μM MTSET co-applied with 300 μM ACh): 34 s and 34 ± 12 s
reduction of ACh-evoked currents ([1]; after 100 μM MTS reagent alone): unchanged
reduction of ACh/Mor-evoked currents ([1]; after 100 μM MTS reagent alone): 32 ± 9%
reduction of degree of potentiation ([1]; after 100 μM MTS reagent alone): 31 ± 8%
decrease of Mor efficacy ([1]; after 100 μM MTSET alone): 66%
decrease in efficacy of ACh/Mor concentration-response curve [2, 11]: 50%
decrease in potency of ACh/Mor concentration-response curve [2, 11]: 3 fold
decrease in ACh efficacy (maximum response at high ACh) [2, 12]: 75%
decrease in ACh potency after MTSET/agonist co-application [2, 12]: 4.5 fold
decrease of Mor potency ([2]; four 30-sec doses): without changing the potency
reduction of maximum Mor-evoked current (efficacy) ([2]; four 30-sec doses): 75 - 80%

Cc1ccsc1C=CC1=NCCCN1C.O=C(O)C(O)C(O)C(=O)O [Mor, 1,4,5,6-tetrahydro-1-methyl-2-(2-[3-methyl-2-thienyl]ethenyl)pyrimidine, tartrate salt]
EC50 [3]: 20 ± 3 µM
Mor Potentiation % Change after MTS [3, 13]: 2 ± 4%
Mor-evoked Response nH ([3]; Hill coefficient): 1.7 ± 0.3
Mor Potentiation IACh+Mor/IACh ([3]; [ACh] ~ EC50 ± 10 μM Mor): 1.5 ± 0.1
Mor-evoked Response Emax [3, 14]: 0.24 ± 0.1
Mor Potentiation % Change after MTS [4, 13]: 3 ± 3%
Mor Potentiation IACh+Mor/IACh ([4]; [ACh] ~ EC50 ± 10 μM Mor): 1.9 ± 0.1
potentiation (IACh+Mor/IACh), sample traces Fig. 2 ([4]; pre-MTSET, 100 μM ACh + 10 μM Mor): 2.8
EC50 [5]: 62 ± 11 µM
change in Mor potentiation after MTSET alone ([5]; 100 μM MTSET alone, four 30-sec doses, 100 μM ACh): no change in potentiation outside of error
Mor-evoked Response nH ([5]; Hill coefficient): 2.1 ± 0.7
Mor Potentiation IACh+Mor/IACh ([5]; [ACh] ~ EC50 ± 10 μM Mor): 1.7 ± 0.2
Mor-evoked Response Emax [5, 14]: 0.56 ± 0.05
Mor-evoked Response nH ([6]; Hill coefficient): 3.1 ± 1.6
Mor-evoked Response Emax [6, 14]: 0.2
EC50 [1]: 30 µM
potentiation IACh+Mor/I30 μM ACh ([1]; 30 μM ACh (~EC20)): 7.7
potentiation post/pre ([1]; 50 μM Mor included with the MTSET/300 μM ACh co-application): 1.05 ± 0.07
Mor Potentiation % Change after MTS ([1]; 100 μM MTSET co-applied with ACh (300 μM), 2 min): * -30 ± 4%
potentiation IACh+Mor/I300 μM ACh ([1]; 300 μM ACh (~EC50)): 2.2
Mor-evoked Response nH ([1]; Hill coefficient, pre MTSET in Fig. 8): 1.4 ± 0.1
Mor Potentiation IACh+Mor/IACh ([1]; [ACh] ~ EC50 ± 10 μM Mor): 2.3 ± 0.3
Mor nH post MTSET ([1]; after 100 μM MTSET alone, four 30-sec doses): 2.2 ± 1.4
Mor Emax post MTSET ([1]; after 100 μM MTSET alone, normalized to 300 μM ACh before modification): 0.1 and 0.10 ± 0.01
potentiation (IACh+Mor/IACh), sample traces Fig. 2 [1, 15]: 2.8
potentiation (IACh+Mor/IACh), sample traces Fig. 2 ([1]; pre-MTSET): 4.5
Mor-evoked Response Emax ([1]; relative to response to ACh alone at [ACh] ~ EC50 (300 μM), pre MTSET in Fig. 8): 0.3 and 0.29 ± 0.01
Mor potentiation [7]: completely abolishes Mor potentiation
Mor Potentiation % Change after MTS [8, 16]: 3 ± 8%
Mor Potentiation IACh+Mor/IACh ([8]; [ACh] ~ EC50 ± 10 μM Mor): 1.3 ± 0.1
EC50 [9]: 20 ± 6 µM
change in Mor potentiation after MTSET alone ([9]; 100 μM MTSET alone, four 30-sec doses, 30 μM ACh): no change in potentiation outside of error
Mor-evoked Response nH ([9]; Hill coefficient): 1.8 ± 0.7
Mor Potentiation IACh+Mor/IACh ([9]; [ACh] ~ EC50 ± 10 μM Mor): 1.4 ± 0.1
Mor-evoked Response Emax [9, 14]: 0.08 ± 0.01
Mor Potentiation % Change after MTS [2, 16]: * 52 ± 17%
Mor-evoked Response nH ([2]; Hill coefficient): 2.3 ± 0.2
EC50 ([2]; Mor EC50, Control, pre-treatment control, Fig. 7): 20 ± 2 µM
EC50 ([2]; Mor EC50 after BrACh, after 100 μM BrACh, four 30-sec doses): 30 ± 5 µM
EC50 ([2]; Mor EC50 after MTSBn, after 100 μM MTSBn, four 30-sec doses): 80 ± 20 µM
EC50 ([2]; Mor EC50 after MTSEA, after 100 μM MTSEA, four 30-sec doses): 30 ± 1 µM
EC50 ([2]; Mor EC50 after MTSET, after 100 μM MTSET, four 30-sec doses): 20 ± 4 µM
EC50 ([2]; Mor-evoked Response EC50, Mor as agonist): 26 ± 1 µM
Mor Potentiation IACh+Mor/IACh ([2]; [ACh] ~ EC50 ± 10 μM Mor): 1.6 ± 0.1
Mor nH after BrACh ([2]; after 100 μM BrACh): 1.5 ± 0.4
Mor Emax after BrACh ([2]; after 100 μM BrACh, normalized to pre-treatment 300 μM Mor response): 0.96 ± 0.07
Mor nH after MTSBn ([2]; after 100 μM MTSBn): 2.7 ± 1.5
Mor Emax after MTSBn ([2]; after 100 μM MTSBn, normalized to pre-treatment 300 μM Mor response): 0.56 ± 0.07
Mor nH after MTSEA ([2]; after 100 μM MTSEA): 2.3 ± 0.3
Mor Emax after MTSEA ([2]; after 100 μM MTSEA, normalized to pre-treatment 300 μM Mor response): 0.20 ± 0.01
Mor nH after MTSET ([2]; after 100 μM MTSET): 3.4 ± 1.9
Mor Emax after MTSET ([2]; after 100 μM MTSET, normalized to pre-treatment 300 μM Mor response): 0.24 ± 0.02
potentiation (IACh+Mor/IACh), sample traces Fig. 2 [2, 15]: 7.5
potentiation ([2]; measured at ~EC50 ACh, after MTSET treatment): 4.0
potentiation ([2]; measured at ~EC50 ACh, before MTSET treatment): 1.6
potentiation ([2]; measured at ~EC75 ACh, after MTSET treatment): 3.0
potentiation ([2]; measured at ~EC75 ACh, before MTSET treatment): 1.5
Mor Emax, Control ([2]; normalized to pre-treatment 300 μM Mor response): 1.00
potentiation (IACh+Mor/IACh), sample traces Fig. 2 ([2]; pre-MTSET): 3.3
I300 μM Mor/I300 μM ACh (pre) ([2]; pre-treatment): 0.14 ± 0.01
Mor nH, Control ([2]; pre-treatment control, Fig. 7): 2.2 ± 0.4
Mor-evoked Response Emax [2, 14]: 0.33 ± 0.04
EC50 [10]: 110 ± 40 µM
Mor Potentiation % Change after MTS [10, 16]: -7 ± 10%
Mor-evoked Response nH ([10]; Hill coefficient): 1.4 ± 0.5
Mor Potentiation IACh+Mor/IACh ([10]; [ACh] ~ EC50 ± 10 μM Mor): 4.9 ± 1.0
Mor-evoked Response Emax [10, 14]: 0.36 ± 0.05
